Results published in ChEMBL document CHEMBL3217433, “Identification of pyrazolo-pyrimidinones as GHS-R1a antagonists and inverse agonists for the treatment of obesity” (Medchemcomm, 2013).
≈ marks a conversion by molar mass, not a printed value.

Legend:
[1] = Aqueous solubility of the compound in phosphate buffer at pH 7.4 after 24 hrs by LC-UV analysis; type: physicochemical
[2] = Lipophilicity, log D of the compound by HPLC analysis; type: physicochemical
[3] = Octanol-buffer partition coefficient, log D of the compound at pH 7.4 after 30 mins by shake-flask method; type: physicochemical
[4] = Dissociation constant, pKa of the compound; type: physicochemical
[5] = Drug uptake in mouse brain at 20 mg/kg, po measured at 1 hr; type: ADME, organism-based; set-up: dose 20 mg/kg, route oral; details: read-out: Drug uptake
[6] = Plasma concentration in mouse at 20 mg/kg, po measured at 1 hr; type: ADME, organism-based; set-up: dose 20 mg/kg, route oral
[7] = Intrinsic clearance in human liver microsomes; type: ADME; details: read-out: CLH

Cc1ccccc1-c1nc2ccc(-c3ccc(Cl)cc3)cc2c(=O)n1C[C@H]1CCCN(C(C)C)C1
solubility at 24 h [1]: 45 µM (≈ 21.9 µg/mL) | logD [2]: 5 | logD at 0.5 h [3]: > 4.3

COCCN1CCC[C@@H](Cn2c(-c3ccccc3C)nc3cc(-c4ccc(Cl)cc4)sc3c2=O)C1
logD [2]: 5.6 | pKa [4]: 8.5 | logD at 0.5 h [3]: > 4.3

COCCN1CCC[C@@H](Cn2c(-c3ccccc3C)nc3nc(-c4ccc(Cl)cc4)sc3c2=O)C1
logD [2]: 5.1 | pKa [4]: 9.2 | logD at 0.5 h [3]: 3.5

COCCN1CCC[C@@H](Cn2c(-c3ccccc3C)nc3cn(-c4ccc(Cl)cc4)nc3c2=O)C1
logD [2]: 3.7 | pKa [4]: 8.5 | logD at 0.5 h [3]: 3.3

COc1cccc(-n2cc3nc(-c4cccnc4C)n(C[C@H]4CCCN(C(C)C)C4)c(=O)c3n2)c1
solubility at 24 h [1]: > 2700 µM | pKa [4]: 9.7 | logD at 0.5 h [3]: 1.3

COCCN1CCC[C@H](Cn2c(-c3cccnc3C)nc3cn(-c4cccc(OC)c4)nc3c2=O)C1
pKa [4]: 8.4 | logD at 0.5 h [3]: 1.3

COCCN1CCC[C@H](Cn2c(-c3cccnc3C)nc3cn(C4CCCCC4)nc3c2=O)C1
logD at 0.5 h [3]: 1.4

COc1cccc(-n2cc3nc(-c4cccnc4C)n(C[C@H]4CCCN(C[C@H]5CCCO5)C4)c(=O)c3n2)c1
solubility at 24 h [1]: > 1500 µM | concentration at 1 h [5]: 240 nM | logD at 0.5 h [3]: 2 | concentration at 1 h [6]: 1200 nM | microsomal CLint [7]: 17 µL/min/mg

COc1cccc(-n2cc3nc(C)n(C[C@H]4CCCN(C[C@H]5CCCO5)C4)c(=O)c3n2)c1
logD at 0.5 h [3]: 1.9 | microsomal CLint [7]: 16 µL/min/mg

COc1cccc(-n2cc3nc(CC(C)C)n(C[C@H]4CCCN(C[C@H]5CCCO5)C4)c(=O)c3n2)c1
logD at 0.5 h [3]: 3.1 | microsomal CLint [7]: 60 µL/min/mg

Cc1ncccc1-c1nc2cn(-c3ccccc3)nc2c(=O)n1C[C@H]1CCCN(C[C@H]2CCCO2)C1
logD at 0.5 h [3]: 1.7 | microsomal CLint [7]: 15 µL/min/mg

COc1ccc(-n2cc3nc(-c4cccnc4C)n(C[C@H]4CCCN(C[C@H]5CCCO5)C4)c(=O)c3n2)cc1
logD at 0.5 h [3]: 1.9 | microsomal CLint [7]: 21 µL/min/mg

CCOc1cccc(-n2cc3nc(-c4cccnc4C)n(C[C@H]4CCCN(C[C@H]5CCCO5)C4)c(=O)c3n2)c1
logD at 0.5 h [3]: 2.5 | microsomal CLint [7]: 30 µL/min/mg

CCCOc1cccc(-n2cc3nc(-c4cccnc4C)n(C[C@H]4CCCN(C[C@H]5CCCO5)C4)c(=O)c3n2)c1
logD at 0.5 h [3]: 2.9 | microsomal CLint [7]: 67 µL/min/mg

Cc1ncccc1-c1nc2cn(-c3cccc(OC(C)C)c3)nc2c(=O)n1C[C@H]1CCCN(C[C@H]2CCCO2)C1
logD at 0.5 h [3]: 2.7 | microsomal CLint [7]: 51 µL/min/mg

Cc1ncccc1-c1nc2cn(-c3cccc(OC(F)F)c3)nc2c(=O)n1C[C@H]1CCCN(C[C@H]2CCCO2)C1
logD at 0.5 h [3]: 2.2 | microsomal CLint [7]: 33 µL/min/mg

Cc1ccccc1-c1nc2cc(-c3ccc(Cl)cc3)sc2c(=O)n1CC1CCCN(C(C)C)C1 (racemic)
logD [2]: 4.8

Cc1ccccc1-c1nc2cn(-c3ccc(Cl)cc3)nc2c(=O)n1CC1CCCN(C(C)C)C1 (racemic)
logD [2]: 3.2 | pKa [4]: 10

Cc1ccccc1-c1nc2cn(-c3ccc(F)cc3)nc2c(=O)n1CC1CCCN(C(C)C)C1 (racemic)
pKa [4]: 10 | logD at 0.5 h [3]: 2.3

Cc1ccccc1-c1nc2cn(-c3ccc(C#N)cc3)nc2c(=O)n1CC1CCCN(C(C)C)C1 (racemic)
pKa [4]: 10

COc1ccc(-n2cc3nc(-c4ccccc4C)n(CC4CCCN(C(C)C)C4)c(=O)c3n2)cc1 (racemic)
pKa [4]: 10 | logD at 0.5 h [3]: 2.4

Cc1ccccc1-c1nc2cn(-c3cccc(Cl)c3)nc2c(=O)n1CC1CCCN(C(C)C)C1 (racemic)
pKa [4]: 9.8 | logD at 0.5 h [3]: 3

COc1cccc(-n2cc3nc(-c4ccccc4C)n(CC4CCCN(C(C)C)C4)c(=O)c3n2)c1 (racemic)
pKa [4]: 10 | logD at 0.5 h [3]: 2.5

Cc1ccccc1-c1nc2cn(-c3cccc(C#N)c3)nc2c(=O)n1CC1CCCN(C(C)C)C1 (racemic)
pKa [4]: 9.9 | logD at 0.5 h [3]: 1.8

COCCN1CCCC(Cn2c(-c3cccnc3C)nc3cn(-c4ccc(C#N)cc4)nc3c2=O)C1 (racemic)
pKa [4]: 8.5 | logD at 0.5 h [3]: 1.1

Cc1ncccc1-c1nc2cn(-c3ccc(C#N)cc3)nc2c(=O)n1CC1CCCN(C2COC2)C1 (racemic)
pKa [4]: 6.4 | logD at 0.5 h [3]: 1.2
